Experimental data as given in patent US20260285853A1, “COMPOUNDS AND METHODS FOR MODULATING SPLICING” (REMIX THERAPEUTICS INC., priority 2023, published 2026).

Legend:
Format in all cases: cell-based
HTT mRNA [1] = experiment: Splicing RT-qPCR assay (THP), Table 2A; conditions: Table 2A (THP); for AC50: AJ mRNA increase, read-out: HTT AJ (increase in alternative junction mRNA, AC50); for IC50: CJ mRNA decrease, read-out: HTT CJ (decrease in canonical junction mRNA, IC50)
MYB mRNA [2] = experiment: Splicing RT-qPCR assay (THP), Table 2A; conditions: Table 2A (THP); for AC50: AJ mRNA increase, read-out: MYB AJ (increase in alternative junction mRNA, AC50); for IC50: CJ mRNA decrease, read-out: MYB CJ (decrease in canonical junction mRNA, IC50)
HTT mRNA [3] = experiment: Gene panel canonical junction qPCR assay, decrease in CJ mRNA, Table 3; conditions: decrease in canonical junction (CJ) mRNA, gene panel qPCR, Table 3
Procedure, shortened: (§1)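 IC50 is the concentration giving 50% response in decrease of the canonical junction transcript, fitted with a 4-parameter logistic equation. Transcripts were quantified by RT-qPCR in A673 or K562 cells after 24 h exposure to compounds dosed up to 10 uM in 3-fold steps.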

MYB mRNA [4] = experiment: as above; conditions: decrease in canonical junction (CJ) mRNA, gene panel qPCR, Table 3
Procedure, shortened: as §1

[5] = tested on: SH-SY5Y (human neuroblastoma) cells; experiment: Cell viability, Cell Titer Glo 2.0 assay; conditions: read-out: Viability SHSY5Y.3 GI50
Procedure, shortened: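 Steps: serial DMSO dilution of compound, 1:100 dilution into medium, addition to cells (0.1% DMSO final). Incubate 72 h at 37 °C, 5% CO2. Assay with CellTiter-Glo 2.0 reagent.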

Row | SMILES | AC50 (HTT mRNA [1]) [nM] | IC50 (HTT mRNA [1]) [nM] | AC50 (MYB mRNA [2]) [nM] | IC50 (MYB mRNA [2]) [nM] | IC50 (HTT mRNA [3]) [nM] | IC50 (MYB mRNA [4]) [nM] | GI50 [5] [nM]
1 | COc1cc2nn(C)cc2cc1NC(=O)c1ccc(N2CC3(CNC3)C2)c2cn(C)nc12 [Compound 506] | 1000 to 10000 | 1000 to 10000 | 100 to 1000 | 100 to 1000 | 1000 to 10000 | 100 to 1000 | > 10000
2 | COc1cc2nn(C)cc2cc1NC(=O)c1ccc(N2CC3(CCNCC3)C2)c2cn(C)nc12 [Compound 507] | 1000 to 10000 | 1000 to 10000 | 100 to 1000 | 1000 to 10000 | 1000 to 10000 | 1000 to 10000 | 1000 to 10000
3 | COc1cc2nn(C)cc2cc1NC(=O)c1ccc(N2CC3(CNCCO3)C2)c2cn(C)nc12 [Compound 508] | > 10000 | > 10000 | 1000 to 10000 | > 10000 | > 10000 | > 10000 | 1000 to 10000
4 | COc1cc2nn(C)cc2cc1NC(=O)c1ccc(N2CC(C3CNC3)C2)c2cn(C)nc12 [Compound 509] | > 10000 | > 10000 | > 10000 | > 10000 | > 10000 | > 10000 | > 10000
5 | COc1cc2nn(C)cc2cc1NC(=O)c1ccc(N2CCC3(CCCN3)C2)c2cn(C)nc12 (stereo not shown) [Compound 512] | > 10000 | > 10000 | 100 to 1000 | 1000 to 10000 | > 10000 | 1000 to 10000 | 1000 to 10000
6 | COc1cc2nn(C)cc2cc1NC(=O)c1ccc(N2CCC3(CCNC3)C2)c2cn(C)nc12 (stereo not shown) [Compound 513] | > 10000 | > 10000 | 1000 to 10000 | 1000 to 10000 | > 10000 | 1000 to 10000 | > 10000
7 | COc1cc2nn(C)cc2cc1NC(=O)c1ccc(N2CC3CNCC3C2)c2cn(C)nc12 (stereo not shown) [Compound 514] | 1000 to 10000 | 1000 to 10000 | 100 to 1000 | 100 to 1000 | 1000 to 10000 | 100 to 1000 | > 10000
8 | COc1cc2nn(C)cc2cc1NC(=O)c1ccc(N2CC[C@@H]3CNCC[C@@H]32)c2cn(C)nc12 [Compound 515] | 1000 to 10000 | > 10000 | 100 to 1000 | 100 to 1000 | > 10000 | 100 to 1000 | 1000 to 10000
9 | CNC1CCN(c2ccc(C(=O)Nc3cc4cn(C)nc4cc3OC)c3nn(C)cc23)C1 (stereo not shown) [Compound 518] | 1000 to 10000 | 1000 to 10000 | < 100 | 100 to 1000 | 1000 to 10000 | 100 to 1000 | 1000 to 10000
10 | CNC1CCN(c2ccc(NC(=O)c3cc4cc(C)nn4cc3OC)c3nn(C)cc23)CC1 [Compound 520, 6-methoxy-2-methyl-N-[2-methyl-4-[4-(methyamino)-1-piperidyl]indazol-7-yl]-pyrazolo[1,5-a] pyridine-5-carboxamide] | > 10000 | > 10000 | > 10000 | > 10000 | > 10000 | > 10000 | > 10000
11 | CNC1CCN(c2ccc(NC(=O)c3cc4cn(C)nc4cc3OC)c3nn(C)cc23)CC1 [Compound 521, 6-methoxy-2-methyl-N-[2-methyl-4-[4-(methylamino)-1-piperidyl]indazol-7-yl]-indazole-5-carboxamide] | > 10000 | > 10000 | > 10000 | > 10000 | > 10000 | > 10000 | > 10000
12 | COc1cc2nn(C)cc2cc1NC(=O)c1ccc(N2CCC(NC3CC3)CC2)c2c(CO)n(C)nc12 [Compound 522, 4-[4-(cyclopropylamino)-1-piperidyl]-3-(hydroxymethyl)-N-(6-methoxy-2-methyl-indazol-5-yl)-2-methyl-indazole-7-carboxamide] | 1000 to 10000 | 1000 to 10000 | 1000 to 10000 | 1000 to 10000 | 1000 to 10000 | 1000 to 10000 | 1000 to 10000
13 | CCNC1CCN(c2ccc(C(=O)Nc3cn4cc(C)nc(C)c4c3F)c3nn(C)cc23)CC1 [Compound 523, 4-[4-(ethylamino)-1-piperidyl]-N-(8-fluoro-1,3-dimethyl-pyrrolo[1,2-a]pyrazin-7-yl)-2-methyl-indazole-7-carboxamide] | 1000 to 10000 | 1000 to 10000 | 1000 to 10000 | 1000 to 10000 | 1000 to 10000 | 1000 to 10000 | 1000 to 10000
14 | COc1nc2nc(C)cn2cc1NC(=O)c1ccc(N2CCC(NC3CC3)CC2)c2cn(C)nc12 [Compound 524, 4-[4-(cyclopropyl-amino)-1-piperidyl]-N-(7-methoxy-2-methylimidazo-[1,2-a]-pyrimidin-6-yl)-2-methyl-indazole-7-carboxamide] | 1000 to 10000 | 1000 to 10000 | < 100 | < 100 | 1000 to 10000 | < 100 | 100 to 1000
15 | Cc1cn2cc(NC(=O)c3ccc(N4CC5CNCC5C4)c4cn(C)nc34)nc2c(C)n1 (stereo not shown) [Compound 526] | 1000 to 10000 | 1000 to 10000 | 1000 to 10000 | 1000 to 10000 | 1000 to 10000 | 1000 to 10000 | 1000 to 10000
16 | CNCC1CCN(c2ccc(C(=O)Nc3cn4cc(C)nc(C)c4n3)c3nn(C)cc23)C1 (stereo not shown) [Compound 527] | 100 to 1000 | 100 to 1000 | 100 to 1000 | 100 to 1000 | 100 to 1000 | 100 to 1000 | 100 to 1000
17 | Cc1cn2cc(NC(=O)c3ccc(N4CCC(N5CCNCC5)C4)c4cn(C)nc34)nc2c(C)n1 (stereo not shown) [Compound 528] | 100 to 1000 | 100 to 1000 | 100 to 1000 | 100 to 1000 | 100 to 1000 | 100 to 1000 | 100 to 1000
18 | Cc1cn2cc(NC(=O)c3ccc(N4CCC5(CCCN5)CC4)c4cn(C)nc34)nc2c(C)n1 [Compound 529] | > 10000 | > 10000 | 100 to 1000 | 100 to 1000 | > 10000 | 100 to 1000 | 1000 to 10000
19 | Cc1cn2cc(NC(=O)c3ccc(N4CCC5NCC5C4)c4cn(C)nc34)nc2c(C)n1 (stereo not shown) [Compound 530] | > 10000 | > 10000 | > 10000 | 1000 to 10000 | > 10000 | 1000 to 10000 | > 10000
20 | Cc1cn2cc(NC(=O)c3ccc(N4CCC5NCCC5C4)c4cn(C)nc34)nc2c(C)n1 (stereo not shown) [Compound 531] | > 10000 | > 10000 | 1000 to 10000 | 1000 to 10000 | > 10000 | 1000 to 10000 | 1000 to 10000
21 | CNCC1CCN(c2ccc(C(=O)Nc3cn4cc(C)nc(C)c4n3)c3nn(C)cc23)CC1 [Compound 532] | 100 to 1000 | 100 to 1000 | 100 to 1000 | 100 to 1000 | 100 to 1000 | 100 to 1000 | 100 to 1000
22 | Cc1cn2cc(NC(=O)c3ccc(N4CCN(C5CNC5)CC4)c4cn(C)nc34)nc2c(C)n1 [Compound 533] | 100 to 1000 | 100 to 1000 | 100 to 1000 | 100 to 1000 | 100 to 1000 | 100 to 1000 | 100 to 1000
